# Assay results published in publication PMC4623604, “Discovery of Small Molecules that Inhibit the Disordered Protein, p27^Kip1” (Scientific Reports, 2015).
# Experiments:
# p27-KID [1] = target: T1, p27-KID (Homo sapiens, UniProt P46527); assay: NMR 2D 1H-15N in-phase HSQC titration, binding affinity for p27:small molecule interactions; conditions: sixteen-point titration, 100 μM 15N-p27-KID, inhibitor 0-3 mM
# T1 construct: 6xHis (N, cleaved yes); made in house; host or cells: E. coli (pET28a)
# T1 sequence (P46527 22-105): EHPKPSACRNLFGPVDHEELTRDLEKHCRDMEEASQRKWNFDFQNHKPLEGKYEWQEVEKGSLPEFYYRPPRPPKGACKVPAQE
# Method: 1D and 2D NMR analysis of these molecules led to the identification of 15 additional p27-D2-binding compounds (six with Group 1-like binding features and nine with Group 2-like features; Suppl. Fig. 3b and Suppl. Table 1b).
# Sixteen point titrations of representative fragment hits from Group 1 and Group 2 (SJ572710 and SJ572403, respectively) into ^15N-p27-KID (100 μM) were recorded using an adopted “in-phase” 2D ^1H-^15N HISQC with proton decoupling during ^15N chemical shift labeling achieved with a WALTZ16 composite pulse with an amplitude of 7.1 kHz[54][55]. All experiments were collected at a Bruker Avance 800 MHz spectrometer equipped with TCI cryogenic gradient probe. The following molar ratios of ^15N-p27-KID (100 μM) to inhibitor were used: 1:0, 1:0.1, 1:1.5, 1:3, 1:4.5, 1:6, 1:7.5, 1:9, 1:10.5, 1:12, 1:15, 1:18, 1:21, 1:24, 1:27 and 1:30. Each spectrum was recorded with 256 (t1,max = 31.0 ms) and 1024 (t2,max = 106.5 ms) complex points in the ^15N and ^1H dimensions, respectively, with eight transients collected per point. The spectral resolution of the ^1H and ^15N dimensions was 2.4 and 1.7 Hz, respectively. […] The data was processed using the NMRPipe package[56] and analyzed using in-house scripts written in Python using the Scipy computing libraries and Mathematica (Wolfram Research). […]
# p27-KID [2] = target: T1, p27-KID; assay: NMR fragment screening and 2D 1H-15N HSQC chemical shift perturbation mapping; format: binding; set-up: key to Binding Group (site of chemical shift perturbations in p27-KID): Molecules in Group 1 bound to a localized region, F87YY89; molecules in Group 2 bound to this region as well as two others containing two W residues (W60 and W76); conditions: 100 μM 15N-p27-KID; for chemical shift perturbations in 2D HSQC spectra of p27-KID: titrated to 30-fold molar excess (3 mM)
# Source text: We used one-dimensional (1D) ^1H WaterLOGSY[35] and STD[36] […] Fragment molecules were selected from either a commercial library (1,100 compounds from the Ro3 collection, Maybridge/Thermo Fisher Scientific) or an in-house library of 1,222 compounds based on the “Rule of Three”[40] and other criteria (see Methods). […] Binding sites for these compounds were identified by titration into ^15N-p27-KID and analysis of two-dimensional (2D) ^1H-^15N HSQC spectra. […] We termed these molecules Groups 1 and 2, respectively (Fig. 1b,c); representative ^1H CSP histograms are shown in Fig. 1d,e, and ^15N CSPs are presented in Suppl. Fig. 2. Data for all other small molecules are shown in Suppl. Fig. 3.
# Screening and validation NMR experiments were performed at 298 K (25 °C) using either a Varian Inova 600 MHz spectrometer equipped with a triple resonance (HCN) room temperature gradient probe or a Bruker Avance 600 MHz spectrometer equipped with TCI cryogenic gradient probe and a SampleJet sample changer. Fragment molecules were initially analyzed as pools of five molecules dissolved at 10 mM each in DMSO-D6. […] For initial fragment screening experiments, one-dimensional (1D) ^1H- and WaterLOGSY[35] NMR spectra were recorded for compound pools without and with protein. […] DMSO-D6 was added to maintain a constant concentration (2% vol/vol). […] Tryptophan and tyrosine, respectively, were titrated into ^15N-p27-KID (100 μM) up to 3 mM. Three-dimensional (3D) backbone triple-resonance experiments to establish resonance assignments for the p27 constructs were performed using the Bruker Avance 600 MHz spectrometer. […] Fig. 12b,c and d,e, respectively. 2D ^1H-^15N TROSY-HSQC NMR experiments with ^2H/^13C/^15N-p27-D2/Cdk2/cyclin A and SJ403 have been recorded at 308 K (35 °C). 2D ^1H-^15N HSQC experiments of representative fragment hits (1 mM of SJ319843, group 1 and SJ403, group 2, respectively) with ^15N-p21-KID (20 μM) were recorded at 298 K using a Bruker Avance 600 MHz spectrometer. NMR spectra were processed using Bruker Topspin software and analyzed using computer-aided resonance assignment (CARA) software.
# Chemical shift perturbations are generally quantified as combined ^1H and ^15N chemical shift values. […] Thus, the use of a combined chemical shift values would mask the effects of compound binding. […] Thus, the assessment of statistical significance was based upon whether a particular CSP value was larger than, i) the experimental spectral resolution in the given dimension (^1H or ^15N) and ii) the quantity, Δδave + 2σ, for that dimension.
# Cdk2/cyclin A [3] = target: T2, Cdk2/cyclin A (Homo sapiens, UniProt P24941); assay: Cdk2/cyclin A kinase activity assay (Histone H1 substrate); format: biochemical
# T2 construct: Full length human Cdk2, active Cdk2 (phosphorylated at threonine 160); truncated human cyclin A (residues 173–432); made in house
# Method: Cdk2/Cyclin A (200 pM) was mixed with Histone H1 (15 μM; EMD Millipore), p27-D2 (200 nM) and varied amounts of lyophilized SJ403 and incubated overnight at 4 °C. The effect of the SJ403 compound on Cdk2 activity was determined by performing similar experiments in the absence of p27-D2. Subsequently, ATP (50 μM total concentration, of which 6 μCi γ ^32P-ATP (PerkinElmer, Inc)) was added to each reaction and further incubated for 35 minutes at 30 °C. […] The sample buffer contained 20 mM HEPES pH 7.3, 25 mM sodium β-glycerolphosphate, 15 mM MgCl2, 16 mM EGTA, 0.5 mM Na3VO4 and 10 mM DTT. The reactions were quenched by addition of SDS-gel loading buffer (5 μL) and then analyzed by SDS-PAGE (10 μL). The gels were dried at 70 °C under vacuum and a phosphoimager (GE Healthcare, Piscataway, NJ) was used to quantify the ^32P-Histone H1 bands. IC50 values were determined by curve fitting using KaleidaGraph software. Experiments were performed in triplicate and mean IC50 and standard deviations of the mean values are reported.
# Cdk2/cyclin A [4] = target: T2, Cdk2/cyclin A; assay: Fluorescence anisotropy analysis of Cdk2/cyclin A binding to p27-D2-FL; conditions: Alexa Fluor 488 labeled p27-D2
# Method: Figure 4 Fluorescence anisotropy analysis of displacement of p27-D2-FL from Cdk2/cyclin A by SJ403. (a) Fluorescence anisotropy analysis of Cdk2/cyclin A binding to p27-D2-FL. The starting condition (20 nM p27-D2-FL, 300 nM Cdk2/cyclin A) for assessing the effect of fragment hit SJ403 on p27 function is represented as the red circle on the binding isotherm. (b) Titration of SJ403 (0–3 mM) caused the displacement of p27-D2 from Cdk2/cyclin A, resulting in a decrease in fluorescence anisotropy values. Experiments were performed in triplicate and average values and the standard deviations of the means are shown.
# The p27-D2-C99S-R93C mutant was conjugated with Alexa Fluor488-C5-Maleimide (Life Technologies, p27-D2-FL) in buffer containing 20 mM Na phosphate, pH7.3, 20 mM NaCl according to the manufacturer’s protocol. The conjugated protein was further purified by reverse-phase high performance liquid chromatography (HPLC) using a C4 column (Vydac) and 0.1% trifluoroacetic acid-containing water/acetonitrile solvent system. […] Fluorescence anisotropy measurements were performed at 25 °C on a Horiba Fluorolog 3 spectrofluorometer. […] All samples have been incubated overnight in the dark at 4 °C prior to fluorescence measurements. Fluorescence anisotropy binding data was analyzed using KaleidaGraph. […]
molecule,measurement,setting,value
O=c1oc2cc(OCCO)ccc2c2c1CCCC2 [SJ710],Kd,p27-KID [1],4800 ± 1300 µM
same,Binding Group (site of chemical shift perturbations in p27-KID),p27-KID [2]; 2D 1H-15N HSQC,Group 1
"N[C@@H](Cc1c[nH]c2ccccc12)C(=O)O [tryptophan, reference compound]",chemical shift perturbations in 2D HSQC spectra of p27-KID,p27-KID [2],neither aromatic amino acid cause chemical shift perturbations
"N[C@@H](Cc1ccc(O)cc1)C(=O)O [tyrosine, reference compound]",chemical shift perturbations in 2D HSQC spectra of p27-KID,p27-KID [2],neither aromatic amino acid cause chemical shift perturbations
"p27-D2: D2 sub-domain of p27, residues 58-105 of human p27 (RKWNFDFQNHKPLEGKYEWQEVEKGSLPEFYYRPPRPPKGACKVPAQE; UniProt P46527 58-105, looked up, fragment)",IC50,"Cdk2/cyclin A [3]; 200 pM Cdk2/cyclin A, Histone H1 substrate, read-out: IC50, inhibition of Cdk2/cyclin A",0.152 ± 0.039 µM
same,Cdk2 kinase activity maintained (of full kinase activity),"Cdk2/cyclin A [3]; 200 nM p27-D2, 200 pM Cdk2/cyclin A, before SJ403",~ 13%
same,Kd,Cdk2/cyclin A [4],0.073 ± 0.008 µM
